Test results from the supplement of paper PMC9663587.

Assays:
LEE011/Ribociclib [1] = compound: T1, CN(C)C(=O)c1cc2cnc(Nc3ccc(N4CCNCC4)cn3)nc2n1C1CCCC1 [LEE011/Ribociclib]
Taselisib/GDC0032 = compound: Cc1nc(-c2cn3c(n2)-c2ccc(-c4cnn(C(C)(C)C(N)=O)c4)cc2OCC3)n(C(C)C)n1 [Taselisib/GDC0032]
Volasertib/BI6727 = compound: CC[C@@H]1C(=O)N(C)c2cnc(Nc3ccc(C(=O)N[C@H]4CC[C@H](N5CCN(CC6CC6)CC5)CC4)cc3OC)nc2N1C(C)C [Volasertib/BI6727]
[2] = compound: CCN1CCN(Cc2ccc(Nc3ncc(F)c(-c4cc(F)c5nc(C)n(C(C)C)c5c4)n3)nc2)CC1
Tivantinib/ARQ197 = compound: O=C1NC(=O)[C@@H](c2cn3c4c(cccc24)CCC3)[C@@H]1c1c[nH]c2ccccc12 [Tivantinib/ARQ197]
Pictilisib/GDC0941 = compound: CS(=O)(=O)N1CCN(Cc2cc3nc(-c4cccc5[nH]ncc45)nc(N4CCOCC4)c3s2)CC1 [Pictilisib/GDC0941]
ABT-737 = compound: CN(C)CC[C@H](CSc1ccccc1)Nc1ccc(S(=O)(=O)NC(=O)c2ccc(N3CCN(Cc4ccccc4-c4ccc(Cl)cc4)CC3)cc2)cc1[N+](=O)[O-] [ABT-737]
Neratinib/HKI272 [3] = compound: T2, CCOc1cc2ncc(C#N)c(Nc3ccc(OCc4ccccn4)c(Cl)c3)c2cc1NC(=O)/C=C/CN(C)C [Neratinib/HKI272]
Ceritinib/LDK378 = compound: Cc1cc(Nc2ncc(Cl)c(Nc3ccccc3S(=O)(=O)C(C)C)n2)c(OC(C)C)cc1C1CCNCC1 [Ceritinib/LDK378]
BSJ-03-123 [4] = compound: T3, CC(=O)c1c(C)c2cnc(Nc3ccc(N4CCN(CCOCCOCCOCCNC(=O)COc5cccc6c5C(=O)N(C5CCC(=O)NC5=O)C6=O)CC4)cn3)nc2n(C2CCCC2)c1=O [BSJ-03-123]
INK128/MLN0128 = compound: CC(C)n1nc(-c2ccc3oc(N)nc3c2)c2c(N)ncnc21 [INK128/MLN0128]
THZ531 = compound: CN(C)C/C=C/C(=O)Nc1ccc(C(=O)N2CCC[C@@H](Nc3ncc(Cl)c(-c4c[nH]c5ccccc45)n3)C2)cc1 [THZ531]
Paclitaxel = compound: CC(=O)O[C@H]1C(=O)[C@@]2(C)[C@H]([C@H](OC(=O)c3ccccc3)[C@]3(O)C[C@H](OC(=O)[C@H](O)[C@@H](NC(=O)c4ccccc4)c4ccccc4)C(C)=C1C3(C)C)[C@]1(OC(C)=O)CO[C@@H]1C[C@@H]2O [Paclitaxel]
[5] = compound: COc1ccc2c(c1)[C@]1(C[C@H]1c1ccc3c(/C=C/c4ccc(CN5C[C@@H](C)O[C@@H](C)C5)cc4)n[nH]c3c1)C(=O)N2
LEE011/Ribociclib [6] = compound: T1, LEE011/Ribociclib; assay: GR value, 72 h; higher = faster growth (1 = untreated, <0 = killing);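 also: breast cancer and non-malignant breast epithelial lines, nine half-log doses, viable cells counted by Hoechst and LIVE/DEAD dye imaging versus time-zero plates and DMSO controls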
[7] = compound: CCc1cnn2c(NCc3ccc[n+]([O-])c3)cc(N3CCCC[C@H]3CCO)nc12; assay: as above
[8] = compound: CCN1CCN(Cc2ccc(Nc3ncc(F)c(-c4cc(F)c5nc(C)n(C(C)C)c5c4)n3)nc2)CC1; assay: as above
YKL-5-124 = compound: C=CC(=O)Nc1ccc(C(=O)Nc2[nH]nc3c2CN(C(=O)N[C@H](CN(C)C)c2ccccc2)C3(C)C)cc1 [YKL-5-124]; assay: as above
Neratinib/HKI272 [9] = compound: T2, Neratinib/HKI272; assay: as above
BSJ-03-123 [10] = compound: T3, BSJ-03-123; assay: as above
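For GR50, 72 h in this document: breast cancer and non-malignant breast epithelial cell lines, Deep Dye Drop or Dye Drop imaging, nine half-log doses, GR normalized to time-zero plates and DMSO-only controls.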

PDXHCI002 was tested, and the “GR50, 72 h” value (LEE011/Ribociclib [1]) was > 10 µM, the “GR50, 72 h” value (Taselisib/GDC0032) was 0.6 µM and the “GR50, 72 h” value (Volasertib/BI6727) was 0.00369 µM. The “GR50, 72 h” value [2] was 0.0484 µM, the “GR50, 72 h” value (Tivantinib/ARQ197) was 0.238 µM and the “GR50, 72 h” value (Pictilisib/GDC0941) was 2.25 µM. The “GR50, 72 h” value (ABT-737) was 5.62 µM, the “GR50, 72 h” value (Neratinib/HKI272 [3]) was 0.162 µM and the “GR50, 72 h” value (Ceritinib/LDK378) was 0.338 µM. For the same cell line, the “GR50, 72 h” value (BSJ-03-123 [4]) was 1.64 µM, the “GR50, 72 h” value (INK128/MLN0128) was 0.169 µM and the “GR50, 72 h” value (THZ531) was 0.0493 µM. For the same cell line, the “GR50, 72 h” value (Paclitaxel) was 0.00249 µM, the “GR50, 72 h” value [5] was 0.00689 µM and the GR value (LEE011/Ribociclib [6]; 0.001 µM) was 1.04 GR. The GR value (LEE011/Ribociclib [6]; 0.003162 µM) was 1 GR, the GR value (LEE011/Ribociclib [6]; 0.01 µM) was 0.903 GR and the GR value (LEE011/Ribociclib [6]; 0.03162 µM) was 0.925 GR. The GR value (LEE011/Ribociclib [6]; 0.1 µM) was 0.882 GR, the GR value (LEE011/Ribociclib [6]; 0.3162 µM) was 0.862 GR and the GR value (LEE011/Ribociclib [6]; 1 µM) was 0.828 GR. For the same cell line, the GR value (LEE011/Ribociclib [6]; 3.162 µM) was 0.766 GR, the GR value (LEE011/Ribociclib [6]; 10 µM) was 0.51 GR and the GR value ([7]; 0.0001 µM) was 1.11 GR. The GR value ([7]; 0.0003162 µM) was 1.1 GR, the GR value ([7]; 0.001 µM) was 1.11 GR and the GR value ([7]; 0.003162 µM) was 1.05 GR. For the same cell line, the GR value ([7]; 0.01 µM) was 0.744 GR, the GR value ([7]; 0.03162 µM) was -0.331 GR and the GR value ([7]; 0.1 µM) was -0.387 GR. The GR value ([7]; 0.3162 µM) was -0.343 GR, the GR value ([7]; 1 µM) was -0.365 GR and the GR value ([8]; 0.001 µM) was 1.08 GR. It also gave a GR value ([8]; 0.003162 µM) of 1 GR, a GR value ([8]; 0.01 µM) of 0.785 GR and a GR value ([8]; 0.03162 µM) of 0.527 GR. For the same cell line, the GR value ([8]; 0.1 µM) was 0.24 GR, the GR value ([8]; 0.3162 µM) was 0.0121 GR and the GR value ([8]; 1 µM) was -0.312 GR. It also gave a GR value ([8]; 3.162 µM) of -0.593 GR, a GR value ([8]; 10 µM) of -0.688 GR and a GR value (YKL-5-124; 0.001 µM) of 0.288 GR. For the same cell line, the GR value (YKL-5-124; 0.003162 µM) was 0.306 GR, the GR value (YKL-5-124; 0.01 µM) was 0.168 GR and the GR value (YKL-5-124; 0.03162 µM) was 0.196 GR. The GR value (YKL-5-124; 0.1 µM) was 0.158 GR, the GR value (YKL-5-124; 0.3162 µM) was 0.0899 GR and the GR value (YKL-5-124; 1 µM) was 0.0177 GR. It also gave a GR value (YKL-5-124; 3.162 µM) of 0.0442 GR, a GR value (YKL-5-124; 10 µM) of -0.129 GR and a GR value (Neratinib/HKI272 [9]; 0.0003162 µM) of 1.05 GR. For the same cell line, the GR value (Neratinib/HKI272 [9]; 0.001 µM) was 1 GR, the GR value (Neratinib/HKI272 [9]; 0.003162 µM) was 1.02 GR and the GR value (Neratinib/HKI272 [9]; 0.01 µM) was 0.829 GR. The GR value (Neratinib/HKI272 [9]; 0.03162 µM) was 0.637 GR, the GR value (Neratinib/HKI272 [9]; 0.1 µM) was 0.54 GR and the GR value (Neratinib/HKI272 [9]; 0.3162 µM) was 0.378 GR. The GR value (Neratinib/HKI272 [9]; 1 µM) was 0.19 GR, the GR value (Neratinib/HKI272 [9]; 3.162 µM) was -0.143 GR and the GR value (BSJ-03-123 [10]; 0.001 µM) was 1.08 GR. It also gave a GR value (BSJ-03-123 [10]; 0.003162 µM) of 1.03 GR, a GR value (BSJ-03-123 [10]; 0.01 µM) of 0.992 GR and a GR value (BSJ-03-123 [10]; 0.03162 µM) of 0.883 GR. For the same cell line, the GR value (BSJ-03-123 [10]; 0.1 µM) was 0.812 GR, the GR value (BSJ-03-123 [10]; 0.3162 µM) was 0.771 GR and the GR value (BSJ-03-123 [10]; 1 µM) was 0.565 GR. The GR value (BSJ-03-123 [10]; 3.162 µM) was 0.472 GR and the GR value (BSJ-03-123 [10]; 10 µM) was -0.0835 GR.
